Source: PubChem BioAssay AID212 (DTP/NCI, 2004)
Several values for one entry are separate records, joined by “and”; a condition that tells them apart may be missing. Equal values may be shown once. Records with an inconclusive call do not appear.

Tested on: BDF1 mice, colon carcinoma 38 sc, T/C %
Assay: NCI In Vivo Anticancer Drug Screen. Data for tumor model Colon Carcinoma 38 (subcutaneous) in B6D2F1 (BDF1) mice
Conditions: endpoint: median tumor weight (est.), higher = larger tumour
Procedure, shortened: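 Transplantable tumor in mice; compound-treated vs vehicle-dosed controls. Measured survival or tumor size; value = T ÷ C.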

[1] = dose: 400.0 mg/kg/injection, schedule: Q07DX002 (ip), vehicle: Klucel (hydroxypropylcellulose) (HPC)
[2] = dose: 12.5 mg/kg/injection, schedule: Q07DX002 (ip), vehicle: saline with Tween-80
[3] = dose: 100.0 mg/kg/injection, schedule: Q07DX002 (ip), vehicle: saline with Tween-80
[4] = dose: 200.0 mg/kg/injection, schedule: Q07DX002 (ip), vehicle: saline with Tween-80
[5] = dose: 25.0 mg/kg/injection, schedule: Q07DX002 (ip), vehicle: saline with Tween-80
[6] = dose: 100.0 mg/kg/injection, schedule: Q07DX002 (ip), vehicle: Klucel (hydroxypropylcellulose) (HPC)
[7] = dose: 800.0 mg/kg/injection, schedule: Q07DX002 (ip), vehicle: Klucel (hydroxypropylcellulose) (HPC)

## ClC(Cl)=C(Cl)Cl
dose: 28.0 mg/kg/injection, schedule: Q07DX002 (ip), vehicle: saline with Tween-80
  T/C: 88 % of control and 103 % of control
dose: 50.0 mg/kg/injection, schedule: Q07DX002 (ip), vehicle: other
  T/C: 79 % of control
dose: 56.0 mg/kg/injection, schedule: Q07DX002 (ip), vehicle: saline with Tween-80
  T/C: 79 % of control and 100 % of control
dose: 100.0 mg/kg/injection, schedule: Q07DX002 (ip), vehicle: other
  T/C: 109 % of control and 112 % of control
dose: 112.0 mg/kg/injection, schedule: Q07DX002 (ip), vehicle: saline with Tween-80
  T/C: 52 % of control
dose: 400.0 mg/kg/injection, schedule: Q07DX002 (ip), vehicle: other
  T/C: 91 % of control
dose: 800.0 mg/kg/injection, schedule: Q07DX002 (ip), vehicle: other
  T/C: 71 % of control

## Nc1ncnc2c1nnn2C1OC(CO)C(O)C1O (stereo unspecified)
[1]
  T/C: 45 % of control

## COC1/C=C/O[C@@]2(C)Oc3c(C)c(O)c4c(O)c(cc(O)c4c3C2=O)NC(=O)/C(C)=C\C=C\[C@H](C)C(O)[C@@H](C)[C@@H](O)[C@@H](C)[C@H](OC(C)=O)[C@@H]1C (stereo partly specified)
[2]
  T/C: 72 % of control
dose: 50.0 mg/kg/injection, schedule: Q07DX002 (ip), vehicle: saline with Tween-80
  T/C: 79 % of control
[3]
  T/C: 84 % of control
[4]
  T/C: 77 % of control
dose: 400.0 mg/kg/injection, schedule: Q07DX002 (ip), vehicle: saline with Tween-80
  T/C: 98 % of control

## O=C1NC(=O)/C(=C/C=C/c2ccccc2)S1
dose: 1.81 mg/kg/injection, schedule: Q07DX002 (ip), vehicle: saline with Tween-80
  T/C: 70 % of control
dose: 3.62 mg/kg/injection, schedule: Q07DX002 (ip), vehicle: saline with Tween-80
  T/C: 198 % of control
dose: 7.25 mg/kg/injection, schedule: Q07DX002 (ip), vehicle: saline with Tween-80
  T/C: 84 % of control
[2]
  T/C: 117 % of control and 100 % of control
dose: 14.5 mg/kg/injection, schedule: Q07DX002 (ip), vehicle: saline with Tween-80
  T/C: 85 % of control
[5]
  T/C: 65 % of control and 80 % of control
dose: 29.0 mg/kg/injection, schedule: Q07DX002 (ip), vehicle: saline with Tween-80
  T/C: 69 % of control
dose: 58.0 mg/kg/injection, schedule: Q07DX002 (ip), vehicle: saline with Tween-80
  T/C: 78 % of control
[3]
  T/C: 175 % of control

## Cn1cnc([N+](=O)[O-])c1S(=O)(=O)NCN1CCOCC1
[6]
  T/C: 102 % of control and 104 % of control

## O=C(O)C1(NO)CCCCC1
dose: 25.0 mg/kg/injection, schedule: Q07DX002 (ip), vehicle: Klucel (hydroxypropylcellulose) (HPC)
  T/C: 56 % of control
dose: 50.0 mg/kg/injection, schedule: Q07DX002 (ip), vehicle: Klucel (hydroxypropylcellulose) (HPC)
  T/C: 86 % of control and 105 % of control
[1]
  T/C: 118 % of control and 94 % of control
[7]
  T/C: 112 % of control and 103 % of control

## CC(=O)Nc1ccc(C(=O)C=O)cc1
[2]
  T/C: 62 % of control and 78 % of control
[5]
  T/C: 87 % of control and 100 % of control
[4]
  T/C: 92 % of control

## CN(C1=NS(=O)(=O)N=C(N(C)c2ccccc2)O1)c1ccccc1
dose: 12.5 mg/kg/injection, schedule: Q07DX003 (ip), vehicle: Klucel (hydroxypropylcellulose) (HPC)
  T/C: 103 % of control
dose: 25.0 mg/kg/injection, schedule: Q07DX003 (ip), vehicle: Klucel (hydroxypropylcellulose) (HPC)
  T/C: 68 % of control
[6]
  T/C: 119 % of control
dose: 100.0 mg/kg/injection, schedule: Q07DX003 (ip), vehicle: Klucel (hydroxypropylcellulose) (HPC)
  T/C: 101 % of control
dose: 200.0 mg/kg/injection, schedule: Q07DX002 (ip), vehicle: Klucel (hydroxypropylcellulose) (HPC)
  T/C: 110 % of control
dose: 200.0 mg/kg/injection, schedule: Q07DX003 (ip), vehicle: Klucel (hydroxypropylcellulose) (HPC)
  T/C: 113 % of control
[1]
  T/C: 162 % of control
dose: 400.0 mg/kg/injection, schedule: Q07DX003 (ip), vehicle: Klucel (hydroxypropylcellulose) (HPC)
  T/C: 113 % of control
[7]
  T/C: 104 % of control
dose: 1600.0 mg/kg/injection, schedule: Q07DX002 (ip), vehicle: Klucel (hydroxypropylcellulose) (HPC)
  T/C: 159 % of control

## OCC1OC(n2cnc3c(Cl)ncnc32)C(O)C1O (stereo unspecified)
dose: 1600.0 mg/kg/injection, schedule: Q07DX002 (ip), vehicle: saline
  T/C: 82 % of control
